{"source": "patent US20050032908A1", "about": "“Methods for treating metabolic syndrome” (priority 2003, published 2005)", "key": {"[1]": {"test": "Pooled analysis of double-blind, placebo-controlled, non-diabetic studies of at least 6 months duration in subjects with metabolic syndrome at baseline", "assay_type": "in vivo, human", "conditions": "compared to placebo; change from baseline to latest assessment after month 6 up to month 12", "excerpt": "(§1) The benefits of sibutramine therapy can be extended to subjects with metabolic syndrome. The treatment effect of sibutramine on subjects that had metabolic syndrome at study entry in the STORM trial and by a pooled analysis of double-blind, placebo-controlled, non-diabetic studies of at least 6 months duration were studied. Subjects were identified who had increased abdominal obesity (waist circumference), decreased HDL cholesterol, and elevated triglycerides (TG) at baseline, and who also completed at least 6 months of sibutramine treatment (pooled analysis subjects: 266 sibutramine, 134 placebo; STORM: 80 sibutramine). Since all subjects in the STORM trial received sibutramine for the first 6 months of the study, only subjects subsequently randomized to receive sibutramine for a longer duration were included. The analyses for each variable were based on change from baseline to latest assessment after month 6, up to and including month 12."}, "[2]": {"test": "STORM trial subjects that had metabolic syndrome at study entry", "assay_type": "in vivo, human", "conditions": "sibutramine treatment group, 80 subjects; change from baseline to latest assessment after month 6 up to month 12", "excerpt": "as §1"}, "[3]": {"conditions": "compared to placebo; cited from earlier work"}, "[4]": {"conditions": "cited from earlier work"}, "[5]": {"conditions": "subjects who lost and maintained weight, compared to the baseline values of all subjects"}}, "note": "Where two headings read alike, the source gives them in different places."}
{"smiles": "CC(C)CC(N(C)C)C1(c2ccc(Cl)cc2)CCC1", "note": "(centres unmarked) [sibutramine, N,N-dimethyl-1-[1-(4-chlorophenyl)cyclobutyl]-3-methylbutylamine]", "values": [{"measurement": "HDL", "setting": "[1]", "value": "clinically and statistically significant improvements"}, {"measurement": "TG", "setting": "[1]", "value": "clinically and statistically significant improvements"}, {"measurement": "waist circumference", "setting": "[1]", "value": "clinically and statistically significant improvements"}, {"measurement": "weight loss", "setting": "[1]", "value": "clinically and statistically significant improvements"}, {"measurement": "HDL", "setting": "[2]", "value": "favorable changes"}, {"measurement": "TG", "setting": "[2]", "value": "favorable changes"}, {"measurement": "waist circumference", "setting": "[2]", "value": "favorable changes"}, {"measurement": "weight loss", "setting": "[2]", "value": "favorable changes"}, {"measurement": "HDL cholesterol", "setting": "[3]", "value": "significant improvements"}, {"measurement": "fasting blood glucose levels", "setting": "[3]", "value": "not significantly changed"}, {"measurement": "insulin levels", "setting": "[3]", "value": "significant improvements"}, {"measurement": "triglyceride levels", "setting": "[3]", "value": "significant improvements"}, {"measurement": "waist circumference (a measure for abdominal obesity)", "setting": "[3]", "value": "significant improvements"}, {"measurement": "subjects who maintained ≧10% weight reduction", "setting": "[4]; at the end of two years of treatment, placebo 21%", "value": 46, "unit": "%"}, {"measurement": "subjects who maintained ≧5% weight reduction", "setting": "[4]; at the end of two years of treatment, placebo 44%", "value": 69, "unit": "%"}, {"measurement": "mean fasting insulin levels", "setting": "[4]; at two years", "value": "reduced"}, {"measurement": "subjects who completed the trial and maintained at least 80% of their month six weight loss", "setting": "[4]; at two years, placebo 16%", "value": 43, "unit": "%"}, {"measurement": "mean weight loss", "setting": "[4]; first six months, subjects achieving ≧5% weight reduction", "value": 26, "unit": "lbs"}, {"measurement": "subjects who achieved a ≧5% weight reduction", "setting": "[4]; of the 499 subjects who completed the first six months, sibutramine with reduced calorie diet and increased physical activity", "value": 94, "unit": "%"}, {"measurement": "HDL cholesterol", "setting": "[4]; [5]", "value": "clinically and statistically significant improvements"}, {"measurement": "triglycerides", "setting": "[4]; [5]", "value": "clinically and statistically significant improvements"}, {"measurement": "waist circumference", "setting": "[4]; [5]", "value": "clinically and statistically significant improvements"}, {"measurement": "impaired fasting glucose", "setting": "[4]; two years", "value": "significantly changed"}]}
